ChEMBL document CHEMBL6109070, “Fatty acid conjugated BimBH3 analogues with d‑amino acid substitution as PTPN1 inhibitors with enhanced activity, biostability and orally available potency for the treatment of diabetes” (Bioorg Med Chem, 2025)

What was measured:
[1] = target: T1, Tyrosine-protein phosphatase non-receptor type 1 (Homo sapiens, UniProt P18031); test: Inhibition of recombinant human PTPN1 using p-nitrophenyl phosphate as substrate by spectrophotometric analysis
T1 sequence (P18031 whole entry): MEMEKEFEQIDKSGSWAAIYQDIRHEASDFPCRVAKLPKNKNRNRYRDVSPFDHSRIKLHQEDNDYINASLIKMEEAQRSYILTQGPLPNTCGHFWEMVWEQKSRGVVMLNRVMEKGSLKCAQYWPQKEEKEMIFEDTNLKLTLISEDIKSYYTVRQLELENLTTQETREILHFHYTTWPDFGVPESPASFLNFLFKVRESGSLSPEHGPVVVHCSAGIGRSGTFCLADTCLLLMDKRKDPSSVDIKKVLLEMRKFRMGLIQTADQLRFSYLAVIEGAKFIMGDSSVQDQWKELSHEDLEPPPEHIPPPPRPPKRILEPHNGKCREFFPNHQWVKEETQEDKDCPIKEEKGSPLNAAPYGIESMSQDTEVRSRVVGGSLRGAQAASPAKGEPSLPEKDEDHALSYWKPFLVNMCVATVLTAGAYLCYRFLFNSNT

Mus musculus [2] = test: Anti-diabetic activity in male Kunming mouse assessed as reduction in area under the curve of blood glucose at 20 mg/kg, po measured for 0 to 180 mins by GTT; type: functional; design: scale not given: the % may be the effect or the level left; conditions: time 0-180 min
Mus musculus [3] = test: Anti-diabetic activity in male Kunming mouse assessed as reduction in area under the curve of blood glucose at 40 mg/kg, po measured for 0 to 180 mins by GTT; type: functional; design: scale not given: the % may be the effect or the level left; conditions: time 0-180 min
Mus musculus [4] = test: Anti-diabetic activity in male Kunming mouse assessed as reduction in area under the curve of blood glucose at 0.05 microM/Kg, sc measured for 0 to 120 mins by GTT; type: functional; design: scale not given: the % may be the effect or the level left; conditions: time 0-120 min, at 0.05 µmol/kg
[5] = Toxicity in male Kunming mouse assessed as change in body weight at 0.2 microM/Kg, sc administered daily for 7 days and measured from day 2 to 7; type: organism-based; conditions: in vivo, 144 h, time 6 day
pepsin = test: Proteolytic stability of compound assessed as pepsin (unknown origin)-mediated drug degradation at 40 mM by measuring half life measured after 24 hrs by RP-HPLC analysis; type: ADME; conditions: human
proteinase K = test: Proteolytic stability of compound assessed as proteinase K (unknown origin)-mediated drug degradation at 0.4 mM by measuring half life measured after 24 hrs by RP-HPLC analysis; type: ADME; conditions: human
chymotrypsin = test: Proteolytic stability of compound assessed as chymotrypsin (unknown origin)-mediated drug degradation at 0.6 mM by measuring half life measured after 24 hrs by RP-HPLC analysis; type: ADME; conditions: human
[6] = Stability in rat plasma assessed as half life; type: ADME, cell-free
[7] = target: T2, Tyrosine-protein phosphatase non-receptor type 1 (Homo sapiens) (UniProt P18031); test: Binding affinity to PTPN1 (unknown origin) assessed as observed […] rate constant (Kobs) by Bio-Layer Interferometric analysis
T2 sequence (whole entry): T1 sequence (P18031 whole entry)

Mus musculus [8] = test: Anti-diabetic activity in male Kunming mouse assessed as reduction in area under the curve of blood glucose at 0.2 microM/Kg, sc measured for 0 to 120 mins by GTT; type: functional; design: scale not given: the % may be the effect or the level left; conditions: time 0-120 min, at 0.2 µmol/kg
Mus musculus [9] = test: Anti-diabetic activity in male Kunming mouse assessed as reduction in area under the curve of blood glucose at 0.1 microM/Kg, sc measured for 0 to 120 mins by GTT; type: functional; design: scale not given: the % may be the effect or the level left; conditions: time 0-120 min, at 0.1 µmol/kg
[10] = target: DPP-4 (dipeptidyl peptidase 4) (Homo sapiens, UniProt P27487); test: Stability of compound assessed as DPP-4 (unknown origin)-mediated drug degradation by measuring half life measured for 10 mins by RP-HPLC analysis; type: ADME
DPP-4 (dipeptidyl peptidase 4), sequence (P27487 whole entry): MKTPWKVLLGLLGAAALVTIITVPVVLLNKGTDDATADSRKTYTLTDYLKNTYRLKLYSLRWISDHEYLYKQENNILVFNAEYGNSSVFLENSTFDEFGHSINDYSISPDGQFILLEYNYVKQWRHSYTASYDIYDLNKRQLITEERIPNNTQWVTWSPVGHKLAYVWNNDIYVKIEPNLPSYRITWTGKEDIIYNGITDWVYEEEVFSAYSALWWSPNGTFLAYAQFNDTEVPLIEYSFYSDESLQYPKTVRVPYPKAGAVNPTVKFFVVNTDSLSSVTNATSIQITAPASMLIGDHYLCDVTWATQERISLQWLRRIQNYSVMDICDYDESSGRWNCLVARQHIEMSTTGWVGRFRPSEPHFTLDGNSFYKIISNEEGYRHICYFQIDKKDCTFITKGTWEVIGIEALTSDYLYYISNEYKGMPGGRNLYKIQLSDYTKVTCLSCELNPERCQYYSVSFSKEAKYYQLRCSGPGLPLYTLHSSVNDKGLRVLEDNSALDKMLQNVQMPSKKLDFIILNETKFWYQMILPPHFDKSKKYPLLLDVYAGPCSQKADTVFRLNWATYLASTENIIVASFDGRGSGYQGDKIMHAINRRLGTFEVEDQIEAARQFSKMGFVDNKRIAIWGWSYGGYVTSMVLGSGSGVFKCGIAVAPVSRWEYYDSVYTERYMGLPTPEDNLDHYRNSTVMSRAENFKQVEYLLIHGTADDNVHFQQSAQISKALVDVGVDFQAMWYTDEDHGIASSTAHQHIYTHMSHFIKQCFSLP

[11] = target: T2, Tyrosine-protein phosphatase non-receptor type 1 (Homo sapiens); test: Binding affinity to PTPN1 (unknown origin) assessed as dissociation rate constant (Koff) by Bio-Layer Interferometric analysis
[12] = target: T2, Tyrosine-protein phosphatase non-receptor type 1 (Homo sapiens); test: Binding affinity to PTPN1 (unknown origin) assessed as association rate constant (Kon) by Bio-Layer Interferometric analysis
[13] = target: T1, Tyrosine-protein phosphatase non-receptor type 1; test: Binding affinity to PTPN1 (unknown origin) assessed as equilibrium dissociation constant (Kd) by Bio-Layer Interferometric analysis
[14] = Toxicity in male Kunming mouse assessed as reduction in body weight at 0.2 microM/Kg, sc administered daily for 7 days and measured on day 1; type: organism-based; conditions: in vivo, 24 h, time 1 day
Mus musculus [15] = test: Anti-diabetic activity in male Kunming mouse assessed as reduction in area under the curve of blood glucose at 10 mg/kg, po measured for 0 to 180 mins by GTT; type: functional; design: scale not given: the % may be the effect or the level left; conditions: time 0-180 min

Structure (SMILES) | IC50 [1] [nM] | half-life at 40000 µM (pepsin) [h] | half-life at 400 µM (proteinase K) [h] | half-life at 600 µM (chymotrypsin) [h] | half-life [6] [h] | Kobs [7] | half-life [10] [h] | K [11] | K [12] | Kd [13] [nM] | Activity (Mus musculus [2]) [%] | Activity (Mus musculus [3]) [%] | Activity (Mus musculus [4]) [%] | Activity [5] | Activity (Mus musculus [8]) [%] | Activity (Mus musculus [9]) [%] | Activity [14] | Activity (Mus musculus [15]) [%]
CCCCCCCCCCCCCCCC(=O)N[C@H](C(=O)N[C@@H](C)C(=O)N[C@@H](CCC(N)=O)C(=O)N[C@@H](CCC(=O)O)C(=O)N[C@@H](CC(C)C)C(=O)N[C@@H](CCCNC(=N)N)C(=O)N[C@@H](CCCNC(=N)N)C(=O)N[C@@H](C(=O)NCC(=O)N[C@@H](CC(=O)O)C(=O)N[C@@H](CCC(=O)O)C(=O)N[C@@H](Cc1ccccc1)C(=O)O)[C@@H](C)CC)[C@@H](C)CC | 294 | 1.42 | 8.87 | 0.712 | 101 | 3.31 10^-2No_unit | 2.87 | 2.5 10^-5/s | 1.65 10^3/Ms | 15.1 | 8 | 15.4 | 7.1 | Non-toxic | 26.2 | 15.6 | ~ 1 g | 4.6
CCCCCCCCCCCCCCCC(=O)N[C@H](C(=O)N[C@H](CCC(N)=O)C(=O)N[C@@H](CCC(N)=O)C(=O)N[C@@H](CCC(=O)O)C(=O)N[C@@H](CC(C)C)C(=O)N[C@@H](CCCNC(=N)N)C(=O)N[C@@H](CCCNC(=N)N)C(=O)N[C@H](C(=O)NCC(=O)N[C@@H](CC(=O)O)C(=O)N[C@@H](CCC(=O)O)C(=O)N[C@@H](Cc1ccccc1)C(=O)O)[C@@H](C)CC)[C@@H](C)CC | 4210 |  |  |  |  |  |  |  |  |  |  |  |  |  |  |  |  | 
CCCCCCCCCCCCCCCC(=O)N[C@H](C(=O)N[C@H](CCCCN)C(=O)N[C@@H](CCC(N)=O)C(=O)N[C@@H](CCC(=O)O)C(=O)N[C@@H](CC(C)C)C(=O)N[C@@H](CCCNC(=N)N)C(=O)N[C@@H](CCCNC(=N)N)C(=O)N[C@H](C(=O)NCC(=O)N[C@@H](CC(=O)O)C(=O)N[C@@H](CCC(=O)O)C(=O)N[C@@H](Cc1ccccc1)C(=O)O)[C@@H](C)CC)[C@@H](C)CC | 2140 |  |  |  |  |  |  |  |  |  |  |  |  |  |  |  |  | 

Now from value to molecule, other results behind:

IC50 [1] [nM] | half-life at 40000 µM (pepsin) [h] | half-life at 400 µM (proteinase K) [h] | half-life at 600 µM (chymotrypsin) [h] | half-life [6] [h] | Kobs [7] | half-life [10] [h] | K [11] | K [12] | Kd [13] [nM] | Structure (SMILES) | Activity (Mus musculus [2]) [%] | Activity (Mus musculus [3]) [%] | Activity (Mus musculus [4]) [%] | Activity [5] | Activity (Mus musculus [8]) [%] | Activity (Mus musculus [9]) [%] | Activity [14] | Activity (Mus musculus [15]) [%]
 | 2.7 | 2.65 | 0.556 | 10.6 | 7.3 10^-3No_unit | 3.68 | 6.65 10^-3/s | 2.35 10^2/Ms | 2820 | CCCCCCCCCCCCCCCC(=O)N[C@H](C(=O)N[C@@H](C)C(=O)N[C@@H](CCC(N)=O)C(=O)N[C@@H](CCC(=O)O)C(=O)N[C@@H](CC(C)C)C(=O)N[C@@H](CCCNC(=N)N)C(=O)N[C@@H](CCCNC(=N)N)C(=O)N[C@H](C(=O)NCC(=O)N[C@@H](CC(=O)O)C(=O)N[C@@H](CCC(=O)O)C(=O)N[C@@H](Cc1ccccc1)C(=O)O)[C@@H](C)CC)[C@@H](C)CC |  |  |  |  |  |  |  | 
395 | 2.42 | 15 | 1.72 | 102 | 6.69 10^-3No_unit | 3.61 | 1.46 10^-4/s | 3.27 10^2/Ms | 167 | CCCCCCCCCCCCCCCC(=O)N[C@H](C(=O)N[C@H](C)C(=O)N[C@@H](CCC(N)=O)C(=O)N[C@@H](CCC(=O)O)C(=O)N[C@@H](CC(C)C)C(=O)N[C@@H](CCCNC(=N)N)C(=O)N[C@@H](CCCNC(=N)N)C(=O)N[C@H](C(=O)NCC(=O)N[C@@H](CC(=O)O)C(=O)N[C@@H](CCC(=O)O)C(=O)N[C@@H](Cc1ccccc1)C(=O)O)[C@@H](C)CC)[C@@H](C)CC |  |  |  |  |  |  |  | 
